Data taken from patent publication US20230102554A1 (GB002, INC., priority 2019, published 2023).

Tests used:
[1] = molecular target: T1, Human PDGFRα, cytoplasmic domain (GST-PDGFRα) (Homo sapiens, UniProt P16234); test: Human PDGFRα biochemical inhibition assay (off-chip Mobility Shift Assay)
T1 construct: made in house

[2] = molecular target: T2, Human PDGFRβ, cytoplasmic domain (GST-PDGFRβ) (Homo sapiens, UniProt P09619); test: Human PDGFRβ biochemical inhibition assay (off-chip Mobility Shift Assay)
T2 construct: made in house
In short: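 GST-tagged cytoplasmic domain (aa 557-1106) from baculovirus was incubated 1 h at room temperature with compound, CSKtide, ATP at Km and Mg²⁺ in HEPES buffer, pH 7.5. Phosphorylated and unphosphorylated peptide were separated by off-chip mobility shift, and the product ratio P/(P+S) gave percent inhibition.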

T2 sequence (P09619 with tags, fused parts or gaps): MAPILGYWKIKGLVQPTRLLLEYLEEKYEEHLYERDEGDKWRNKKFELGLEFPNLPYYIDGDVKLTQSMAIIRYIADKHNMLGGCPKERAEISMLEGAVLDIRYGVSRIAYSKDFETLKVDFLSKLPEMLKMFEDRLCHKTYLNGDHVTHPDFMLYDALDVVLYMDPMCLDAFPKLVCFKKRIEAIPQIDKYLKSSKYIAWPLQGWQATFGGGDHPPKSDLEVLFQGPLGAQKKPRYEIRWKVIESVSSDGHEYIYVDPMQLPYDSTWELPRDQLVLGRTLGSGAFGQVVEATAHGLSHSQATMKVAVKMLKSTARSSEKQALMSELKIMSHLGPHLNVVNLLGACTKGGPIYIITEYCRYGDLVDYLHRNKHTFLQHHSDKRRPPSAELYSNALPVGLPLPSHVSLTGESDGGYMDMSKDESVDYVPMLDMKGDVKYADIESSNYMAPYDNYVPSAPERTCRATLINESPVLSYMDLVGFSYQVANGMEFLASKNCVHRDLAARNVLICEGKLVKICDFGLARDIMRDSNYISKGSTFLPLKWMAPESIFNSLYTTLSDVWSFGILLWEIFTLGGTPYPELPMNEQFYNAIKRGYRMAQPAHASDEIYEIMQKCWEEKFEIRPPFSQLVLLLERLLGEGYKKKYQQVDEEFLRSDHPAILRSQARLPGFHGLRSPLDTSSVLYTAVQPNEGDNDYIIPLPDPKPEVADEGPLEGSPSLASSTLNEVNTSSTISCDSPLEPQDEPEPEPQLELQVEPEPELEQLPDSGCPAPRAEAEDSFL
T1 sequence (P16234 550-1089 T674I): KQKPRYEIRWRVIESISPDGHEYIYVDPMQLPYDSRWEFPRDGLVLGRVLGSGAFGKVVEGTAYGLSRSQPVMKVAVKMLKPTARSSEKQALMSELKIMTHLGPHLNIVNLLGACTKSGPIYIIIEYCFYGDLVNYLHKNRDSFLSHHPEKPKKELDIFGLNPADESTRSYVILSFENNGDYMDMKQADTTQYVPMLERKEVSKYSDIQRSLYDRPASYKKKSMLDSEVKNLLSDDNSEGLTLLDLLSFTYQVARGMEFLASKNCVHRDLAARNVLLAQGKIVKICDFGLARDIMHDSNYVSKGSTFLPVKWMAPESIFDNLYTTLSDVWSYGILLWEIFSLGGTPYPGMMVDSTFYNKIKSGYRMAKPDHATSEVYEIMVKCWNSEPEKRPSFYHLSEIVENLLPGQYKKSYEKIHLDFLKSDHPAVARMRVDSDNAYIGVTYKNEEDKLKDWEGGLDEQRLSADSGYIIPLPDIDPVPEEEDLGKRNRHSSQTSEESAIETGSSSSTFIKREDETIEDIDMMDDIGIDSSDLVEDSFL

| Compound | IC50 [1] [nM] | IC50 [2] [nM] |
| --- | --- | --- |
| C[C@H](Nc1cnc2cnn(C)c2n1)c1cccc(NC(=O)c2cnn(C3CCC3)c2)c1 [Compound 151, (S)-1-cyclobutyl-N-(3-(1-((1-methyl-1H-pyrazolo[3,4-b]pyrazin-6-yl)amino)ethyl)phenyl)-1H-pyrazole-4-carboxamide] | < 300 | < 300 |
| C[C@H](Nc1cnc2cnn(C)c2n1)c1cccc(NC(=O)c2cnn(CC3CC3)c2)c1 [Compound 152, (S)-1-(cyclopropylmethyl)-N-(3-(1-((1-methyl-1H-pyrazolo[3,4-b]pyrazin-6-yl)amino)ethyl)phenyl)-1H-pyrazole-4-carboxamide] | < 300 | < 300 |
| CCn1cc(C(=O)Nc2cccc([C@H](C)Nc3cnc4cnn(C)c4n3)c2)cn1 [Compound 153, (S)-1-ethyl-N-(3-(1-((1-methyl-1H-pyrazolo[3,4-b]pyrazin-6-yl)amino)ethyl)phenyl)-1H-pyrazole-4-carboxamide] | < 300 | < 300 |
| C[C@H](Nc1cnc2cnn(C)c2n1)c1cccc(NC(=O)c2cnn(CCF)c2)c1 [Compound 154, (S)-1-(2-fluoroethyl)-N-(3-(1-((1-methyl-1H-pyrazolo[3,4-b]pyrazin-6-yl)amino)ethyl)phenyl)-1H-pyrazole-4-carboxamide] | < 300 | < 300 |
| C[C@H](Nc1cnc2cnn(C)c2n1)c1cccc(NC(=O)c2ccn(C(F)F)n2)c1 [Compound 155, (S)-1-(difluoromethyl)-N-(3-(1-((1-methyl-1H-pyrazolo[3,4-b]pyrazin-6-yl)amino)ethyl)phenyl)-1H-pyrazole-3-carboxamide] | < 300 | ≥ 1000 |
| CC(C)n1ccc(C(=O)Nc2cccc([C@H](C)Nc3cnc4cnn(C)c4n3)c2)n1 [Compound 156, (S)-1-isopropyl-N-(3-(1-((1-methyl-1H-pyrazolo[3,4-b]pyrazin-6-yl)amino)ethyl)phenyl)-1H-pyrazole-3-carboxamide] | < 300 | < 300 |
| CC(C)Cn1ccc(C(=O)Nc2cccc([C@H](C)Nc3cnc4cnn(C)c4n3)c2)n1 [Compound 157, (S)-1-isobutyl-N-(3-(1-((1-methyl-1H-pyrazolo[3,4-b]pyrazin-6-yl)amino)ethyl)phenyl)-1H-pyrazole-3-carboxamide] | < 300 | < 300 |
| C[C@H](Nc1cnc2cnn(C)c2n1)c1cccc(NC(=O)c2ccn(CC(F)F)n2)c1 [Compound 158, (S)-1-(2,2-difluoroethyl)-N-(3-(1-((1-methyl-1H-pyrazolo[3,4-b]pyrazin-6-yl)amino)ethyl)phenyl)-1H-pyrazole-3-carboxamide] | < 300 | 300 to 1000 |
| C[C@H](Nc1cnc2cnn(C)c2n1)c1cccc(NC(=O)c2cc(C(C)(C)C)nn2C)c1 [Compound 159, (S)-3-(tert-butyl)-1-methyl-N-(3-(1-((1-methyl-1H-pyrazolo[3,4-b]pyrazin-6-yl)amino)ethyl)phenyl)-1H-pyrazole-5-carboxamide] | < 300 | < 300 |
| C[C@H](Nc1cnc2cnn(C)c2n1)c1cccc(NC(=O)c2cc(C(F)(F)F)nn2C)c1 [Compound 160, (S)-1-methyl-N-(3-(1-((1-methyl-1H-pyrazolo[3,4-b]pyrazin-6-yl)amino)ethyl)phenyl)-3-(trifluoromethyl)-1H-pyrazole-5-carboxamide] | < 300 | < 300 |
| CC(C)c1cc(C(=O)Nc2cccc([C@H](C)Nc3cnc4cnn(C)c4n3)c2)n[nH]1 [Compound 161, (S)-5-isopropyl-N-(3-(1-((1-methyl-1H-pyrazolo[3,4-b]pyrazin-6-yl)amino)ethyl)phenyl)-1H-pyrazole-3-carboxamide] | < 300 | < 300 |
| CC(C)c1cc(C(=O)Nc2cccc([C@H](C)Nc3cnc4cnn(C)c4n3)c2)nn1C [Compound 162, (S)-5-isopropyl-1-methyl-N-(3-(1-((1-methyl-1H-pyrazolo[3,4-b]pyrazin-6-yl)amino)ethyl)phenyl)-1H-pyrazole-3-carboxamide] | < 300 | < 300 |
| CCn1nc(C(=O)Nc2cccc([C@H](C)Nc3cnc4cnn(C)c4n3)c2)cc1C(C)C [Compound 163, (S)-1-ethyl-5-isopropyl-N-(3-(1-((1-methyl-1H-pyrazolo[3,4-b]pyrazin-6-yl)amino)ethyl)phenyl)-1H-pyrazole-3-carboxamide] | < 300 | < 300 |
| C[C@H](Nc1cnc2cnn(C)c2n1)c1cccc(NC(=O)c2cc(C(F)(F)F)n(C)n2)c1 [Compound 164, (S)-1-methyl-N-(3-(1-((1-methyl-1H-pyrazolo[3,4-b]pyrazin-6-yl)amino)ethyl)phenyl)-5-(trifluoromethyl)-1H-pyrazole-3-carboxamide] | < 300 | < 300 |
| CC(C)c1cc(C(=O)Nc2cccc([C@H](C)Nc3cnc4cnn(C)c4n3)c2)n(C)n1 [Compound 165, (S)-3-isopropyl-1-methyl-N-(3-(1-((1-methyl-1H-pyrazolo[3,4-6]pyrazin-6-yl)amino)ethyl)phenyl)-1H-pyrazole-5-carboxamide] | < 300 | < 300 |
| C[C@H](Nc1cnc2cnn(C)c2n1)c1cccc(NC(=O)c2cc(C(C)(C)C)n(C)n2)c1 [Compound 166, (S)-5-(tert-butyl)-1-methyl-N-(3-(1-((1-methyl-1H-pyrazolo[3,4-b]pyrazin-6-yl)amino)ethyl)phenyl)-1H-pyrazole-3-carboxamide] | < 300 | < 300 |
| CCn1nc(C(C)C)cc1C(=O)Nc1cccc([C@H](C)Nc2cnc3cnn(C)c3n2)c1 [Compound 167, (S)-1-ethyl-3-isopropyl-N-(3-(1-((1-methyl-1H-pyrazolo[3,4-b]pyrazin-6-yl)amino)ethyl)phenyl)-1H-pyrazole-5-carboxamide] | < 300 | < 300 |
| Cc1cnn(C(=O)Nc2cccc([C@H](C)Nc3cnc4cnn(C)c4n3)c2)c1 [Compound 168, (S)-4-methyl-N-(3-(1-((1-methyl-1H-pyrazolo[3,4-b]pyrazin-6-yl)amino)ethyl)phenyl)-1H-pyrazole-1-carboxamide] | < 300 | ≥ 1000 |
| C[C@H](Nc1cnc2cnn(C)c2n1)c1cccc(NC(=O)c2cnc3c(ccn3C)c2)c1 [Compound 169, (S)-1-methyl-N-(3-(1-((1-methyl-1H-pyrazolo[3,4-b]pyrazin-6-yl)amino)ethyl)phenyl)-1H-pyrrolo[2,3-b] pyridine-5-carboxamide] | < 300 | < 300 |
| Cc1cncc(C(=O)Nc2cc(F)cc(C(C)Nc3cnc4cnn(C)c4n3)c2)c1 (centres unmarked) [Compound 170, N-(3-fluoro-5-(1-((1-methyl-1H-pyrazolo[3,4-b]pyrazin-6-yl)amino)ethyl)phenyl)-5-methylnicotinamide] | < 300 | 300 to 1000 |
| Cc1cncc(C(=O)Nc2cc(F)cc([C@H](C)Nc3cnc4cnn(C)c4n3)c2)c1 [Compound 171, (S)-N-(3-fluoro-5-(1-((1-methyl-1H-pyrazolo[3,4-b]pyrazin-6-yl)amino)ethyl)phenyl)-5-methylnicotinamide] | < 300 | < 300 |
| Cc1cncc(C(=O)Nc2ccc(F)c([C@H](C)Nc3cnc4cnn(C)c4n3)c2)c1 [Compound 172] | < 300 | < 300 |
